Patent US20100279329A1, “METHOD FOR THE STABILISATION OF PURIFIED P-GLYCOPROTEIN” (UNIVERSITY OF BRIGHTON, priority 2007, published 2010)
Entries after “also recorded” stand apart in the source; their conditions may differ. One block for each compound: values may come before it.

Columns and labels:
P-glycoprotein (P-gp) [1] = target: T1, P-glycoprotein (P-gp) (Homo sapiens, UniProt P08183); assay: ATPase activity of P-gp proteoliposomes after freeze drying, rehydration and storage; format: biochemical; design: made in house; host or cells: Trichoplusia ni (High Five) insect cells, recombinant baculovirus; conditions: storage at 4° C. only
Experimental: All freeze drying was carried out using a CHRIST Alpha 2-4 (MartinChrist, Germany) with the condenser temperature set to −80° C. Initial experiments were performed with product in micro-centrifuge tubes. Later experiments were performed using 2 ml glass freeze drying vials and freeze drying injection stoppers in conjunction with a stoppering system. This permitted vials to be sealed under vacuum, thus avoiding moisture uptake from the atmosphere when the chamber pressure was raised to atmospheric. In all experiments the shelf was pre-cooled to −80° C. to avoid melting of products whilst the chamber was being evacuated to the required pressure.
In order for freeze drying to be considered successful P-gp must have at least retained ATPase activity on rehydration immediately after freeze drying. On completion of the freeze drying cycle the solid product cake was rehydrated with distilled water. The product vial was vortexed to ensure the dried product was completely dissolved and rehydrated. […]
P-gp proteoliposomes were freeze dried, sealed and stored at a range of temperatures (4° C., 20° C. and 37° C.) and ATPase activity was assessed at intervals up to 150 days. […]
Following rehydration of P-gp proteoliposomes the ATPase activity was measured as described earlier. Activity was assessed following storage at 4° C., 20° C. and 37° C. at intervals up to 30 days.

P-glycoprotein (P-gp) [2] = target: T1, P-glycoprotein (P-gp); assay: ATPase activity, varying ATP concentration (Michaelis-Menten kinetics), colorimetric Pi release; format: biochemical; design: made in house; host or cells: Trichoplusia ni (High Five) insect cells, recombinant baculovirus; conditions: for Nicardipine stimulated Vmax / Effect of the disaccharide on nicardipine stimulated ATPase activity (Vmax): 30 μM nicardipine; for Nicardipine stimulated Vmax / Basal Vmax: glycerol purified P-gp, mean (SEM), n=4; for Basal Vmax / Effect of the disaccharide on basal ATPase activity: no drug; for Effect of the disaccharide on nicardipine stimulated ATPase activity (Vmax) / Effect of the disaccharide on basal ATPase activity: 10-300 mM disaccharide added to glycerol purified P-gp, two way ANOVA
Experimental: A colorimetric assay (Chifflet et al., 1988) was used to determine ATP hydrolysis via release of inorganic phosphate. P-gp activity was expressed as μmol Pi/min/mg protein.
A 0-20 nmol standard curve was set up using KH2PO4 as a source of Pi. Background Pi was measured using wells containing no protein or drug only ATP and ATPase buffer (50 mM Tris pH 7.4, 150 mM NH4Cl, 5 mM MgSO4, 0.02% (w/v) NaN3).
The plate was incubated for 20 minutes at 37° C. and the reaction quenched by rapid addition of 40 μl 12% (w/v) SDS to all wells. 100 μl of a 1:1 mixture of 6% (w/v) ascorbate in 1M HCl:1% (w/v) ammonium molybdate (prepared after the reaction had been quenched due to its sensitivity to light) was added to all wells and the plate was incubated for 5 minutes at room temperature. Finally, 100 μl 2% (w/v) sodium citrate/sodium metaarsentie/2% (v/v) acetic acid was added and the plate incubated at 37° C. for 15 minutes. The plate was then allowed to cool and the absorbance measured at a wavelength of 750 nm in a plate reader (SpectraMax 250, Molecular Devices/Multiskan Ascent). The amount of Pi released was calculated from the Pi standard curve and the ATPase activity of P-gp calculated.
The amount of protein (mg) in 20 μl was calculated from the protein concentration determined by BSA standard curve (see 1.2.8) allowing ATPase activity to be determined as μmol/min/mg protein. The Michaelis-Menten equation (Equation 1) was fitted to a graph of ATPase activity using non-linear least squares fit (GraphPad Prism 4.0).
Both varying ATP and varying drug assays were performed.

P-glycoprotein (P-gp) [3] = target: T1, P-glycoprotein (P-gp); assay: ATPase activity, varying drug concentration at constant ATP concentration (dose response); conditions: 300 mM disaccharide vs none; glycerol purified P-gp; two way ANOVA
From the text: The assay was set up, conducted and read in conditions identical to those described above. […] The equation for the general dose response curve is given below (Equation 2).
Equation 2: The general dose response curve equation, where • V=rate of hydrolysis expressed as μmol/min/mg Pi, • Vmax=maximum rate of hydrolysis, • Vmin=minimum rate of hydrolysis, • [D]=concentration of drug, and • EC50=concentration of drug required to produce half maximum rate of hydrolysis.
The highest concentration was similar to that found in the reaction volume of an ATPase assay when a 20% (w/v) buffer was used (10 mM-300 mM). […] Both varying ATP and varying drug assays were performed.

[4] = target: T2, plasma membrane H+-ATPase (Kluyveromyces lactis, UniProt P49380); conditions: cited from earlier work
T2 sequence (P49380 1-899): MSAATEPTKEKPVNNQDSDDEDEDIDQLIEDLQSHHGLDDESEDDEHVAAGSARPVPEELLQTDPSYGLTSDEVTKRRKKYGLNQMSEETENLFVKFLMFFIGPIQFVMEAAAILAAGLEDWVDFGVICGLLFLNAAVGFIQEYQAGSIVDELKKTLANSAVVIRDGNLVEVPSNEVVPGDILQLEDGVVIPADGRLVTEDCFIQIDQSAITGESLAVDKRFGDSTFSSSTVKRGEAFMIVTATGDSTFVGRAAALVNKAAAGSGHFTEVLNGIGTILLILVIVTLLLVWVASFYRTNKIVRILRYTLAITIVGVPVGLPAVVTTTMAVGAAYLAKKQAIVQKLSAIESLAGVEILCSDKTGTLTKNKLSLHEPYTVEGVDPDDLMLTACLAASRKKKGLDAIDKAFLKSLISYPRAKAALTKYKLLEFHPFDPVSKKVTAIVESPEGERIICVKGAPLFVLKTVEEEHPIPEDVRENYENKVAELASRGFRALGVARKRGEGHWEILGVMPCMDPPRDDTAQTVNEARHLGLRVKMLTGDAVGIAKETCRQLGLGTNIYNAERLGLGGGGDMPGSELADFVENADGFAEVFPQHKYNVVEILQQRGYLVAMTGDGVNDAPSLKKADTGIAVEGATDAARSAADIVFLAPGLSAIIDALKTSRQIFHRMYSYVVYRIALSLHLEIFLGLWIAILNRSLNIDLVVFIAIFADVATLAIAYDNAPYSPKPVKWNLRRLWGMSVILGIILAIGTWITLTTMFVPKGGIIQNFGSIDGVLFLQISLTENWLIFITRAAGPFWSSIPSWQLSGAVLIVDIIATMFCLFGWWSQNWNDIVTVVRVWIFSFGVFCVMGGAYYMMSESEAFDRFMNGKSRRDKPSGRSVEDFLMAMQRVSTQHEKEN

T1 sequence (P08183 whole entry): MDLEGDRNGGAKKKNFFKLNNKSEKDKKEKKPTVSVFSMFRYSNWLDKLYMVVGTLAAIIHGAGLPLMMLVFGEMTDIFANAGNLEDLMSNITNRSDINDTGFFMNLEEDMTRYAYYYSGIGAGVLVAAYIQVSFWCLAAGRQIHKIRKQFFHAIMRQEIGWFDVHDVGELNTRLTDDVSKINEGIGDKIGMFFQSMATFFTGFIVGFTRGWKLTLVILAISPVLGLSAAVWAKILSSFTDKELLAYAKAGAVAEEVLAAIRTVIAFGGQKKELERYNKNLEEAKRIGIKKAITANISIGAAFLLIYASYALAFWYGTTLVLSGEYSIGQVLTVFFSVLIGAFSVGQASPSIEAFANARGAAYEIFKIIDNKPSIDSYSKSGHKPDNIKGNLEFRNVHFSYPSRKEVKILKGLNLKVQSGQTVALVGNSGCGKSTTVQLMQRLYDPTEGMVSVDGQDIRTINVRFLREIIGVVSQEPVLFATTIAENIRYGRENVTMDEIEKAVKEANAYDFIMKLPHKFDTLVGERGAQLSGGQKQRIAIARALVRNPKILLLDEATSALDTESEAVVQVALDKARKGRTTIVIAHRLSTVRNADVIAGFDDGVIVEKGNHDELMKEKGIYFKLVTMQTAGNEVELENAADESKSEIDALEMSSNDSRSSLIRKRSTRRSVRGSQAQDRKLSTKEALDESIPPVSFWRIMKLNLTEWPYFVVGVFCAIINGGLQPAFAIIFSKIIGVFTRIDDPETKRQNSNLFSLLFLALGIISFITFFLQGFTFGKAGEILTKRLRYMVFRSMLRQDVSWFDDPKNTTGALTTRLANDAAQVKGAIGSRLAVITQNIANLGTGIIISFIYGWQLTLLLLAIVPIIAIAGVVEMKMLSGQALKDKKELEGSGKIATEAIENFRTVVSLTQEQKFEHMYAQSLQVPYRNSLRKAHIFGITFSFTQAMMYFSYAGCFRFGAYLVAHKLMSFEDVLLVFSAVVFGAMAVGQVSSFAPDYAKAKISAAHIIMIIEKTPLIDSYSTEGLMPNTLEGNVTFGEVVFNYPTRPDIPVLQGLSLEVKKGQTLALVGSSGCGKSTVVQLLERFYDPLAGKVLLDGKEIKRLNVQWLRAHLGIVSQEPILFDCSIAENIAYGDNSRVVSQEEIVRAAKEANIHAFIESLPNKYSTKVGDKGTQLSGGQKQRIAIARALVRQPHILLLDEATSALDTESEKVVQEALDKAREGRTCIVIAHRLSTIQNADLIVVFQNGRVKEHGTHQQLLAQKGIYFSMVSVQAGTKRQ

Time for which P-gp ATPase activity is preserved after freeze drying (P-glycoprotein (P-gp) [1]): ≤ 12 days
Nicardipine stimulated Vmax (P-glycoprotein (P-gp) [2]; 10 mM maltose): 1.7 (1.1) μmol/min/mg
Basal Vmax (P-glycoprotein (P-gp) [2]; 10 mM maltose): 0.1 (0.4) μmol/min/mg
Nicardipine stimulated Vmax (P-glycoprotein (P-gp) [2]; 30 mM maltose): 1.1 (0.6) μmol/min/mg
Basal Vmax (P-glycoprotein (P-gp) [2]; 30 mM maltose): 0.1 (0.1) μmol/min/mg
Nicardipine stimulated Vmax (P-glycoprotein (P-gp) [2]; 100 mM maltose): 1.0 (0.3) μmol/min/mg
Basal Vmax (P-glycoprotein (P-gp) [2]; 100 mM maltose): 0.1 (0.6) μmol/min/mg
Nicardipine stimulated Vmax (P-glycoprotein (P-gp) [2]; 300 mM maltose): 0.9 (0.4) μmol/min/mg
Basal Vmax (P-glycoprotein (P-gp) [2]; 300 mM maltose): 0.1 (0.2) μmol/min/mg
SMILES: OC[C@H]1O[C@H](O[C@H]2[C@H](O)[C@@H](O)[C@@H](O)O[C@@H]2CO)[C@H](O)[C@@H](O)[C@@H]1O [Maltose, α-D-glucopyranosyl (1-4) α-D-glucopyranose]
Effect of the disaccharide on nicardipine stimulated ATPase activity (Vmax) (P-glycoprotein (P-gp) [2]): no significant affect; also recorded: did not alter; also recorded: does not effect; also recorded: no significant difference
Effect of the disaccharide on basal ATPase activity (P-glycoprotein (P-gp) [2]): remained unchanged; also recorded: no significant difference

SMILES: OC[C@H]1O[C@H](O[C@H]2O[C@H](CO)[C@@H](O)[C@H](O)[C@H]2O)[C@H](O)[C@@H](O)[C@@H]1O [Trehalose, α-D-glucopyranosyl (1-1) α-D-glucopyranose]
Effect of the disaccharide on potency of nicardipine to stimulate ATPase activity (P-glycoprotein (P-gp) [3]): did not affect; also recorded: unaffected; also recorded: no significant difference
Effect on ATPase activity of plasma membrane H+-ATPase ([4]; 0.6 M to 0.8M trehalose, 20° C.): inhibit
Reduction in Vmax of plasma membrane H+-ATPase ([4]; high trehalose concentrations, 40° C.): negligible
Nicardipine stimulated Vmax (P-glycoprotein (P-gp) [2]; 10 mM trehalose): 4.7 (1.6) μmol/min/mg
Basal Vmax (P-glycoprotein (P-gp) [2]; 10 mM trehalose): 0.86 (0.67) μmol/min/mg
Nicardipine stimulated Vmax (P-glycoprotein (P-gp) [2]; 30 mM trehalose): 5.6 (2.3) μmol/min/mg
Basal Vmax (P-glycoprotein (P-gp) [2]; 30 mM trehalose): 0.63 (0.4) μmol/min/mg
Nicardipine stimulated Vmax (P-glycoprotein (P-gp) [2]; 100 mM trehalose): 4.9 (2.1) μmol/min/mg
Basal Vmax (P-glycoprotein (P-gp) [2]; 100 mM trehalose): 1.0 (0.86) μmol/min/mg
Nicardipine stimulated Vmax (P-glycoprotein (P-gp) [2]; 300 mM trehalose): 3.7 (1.3) μmol/min/mg
Basal Vmax (P-glycoprotein (P-gp) [2]; 300 mM trehalose): 0.7 (0.54) μmol/min/mg
Effect of the disaccharide on nicardipine stimulated ATPase activity (Vmax) (P-glycoprotein (P-gp) [2]): did not affect; also recorded: does not affect; also recorded: no significant difference
Effect of the disaccharide on basal ATPase activity (P-glycoprotein (P-gp) [2]): does not affect; also recorded: no significant difference
